The values below come from US8603502B2, “Compositions comprising jasmonic acid derivatives and use of these derivatives” (L'Oreal S.A., priority 2002, dated 2013).

What all share (format): cell-based
Assay [1] has as its system isolated stratum corneum. In words: Keratolytic power, Test 2: counting corneocytes released from isolated stratum corneum, comparison with jasmonic acid. The following applies: 1% by weight solution in PBS + 0.1% Triton X100, pH 7.4; 37° C., 24 hours. On the procedure: (§1) The keratolytic power of a number of compounds of this disclosure was studied. This test comprises counting corneocytes released following incubation of patches of isolated stratum corneum in the presence of the test compounds.
(§2) Stratum corneum isolated by trypsin/heat from surgical plasties was used. A number of different stratum corneum samples were used. Discs of 4 mm in diameter were punched out and placed at the bottom of a 96-well plate.
A 1% by weight solution of the compound of Example 1, or jasmonic acid (comparison), was prepared in a PBS buffer supplemented with 0.1% of Triton X100. The pH of the solution was adjusted to 7.4.
(§3) 50 microliters of test solution or of control solution (PBS buffer supplemented with 0.1% of Triton X100) were added to each well. Incubation was carried out at 37° C. with stirring for 24 hours.
(§4) 10 microliters of solution were then withdrawn and were placed in a Malassez cell. The liberated corneocytes were counted under the microscope.
The results obtained are as follows, expressed as the number of liberated corneocytes per microliter, averaged over three tests. Corneocyte fragments are not counted.

The subject of assay [2] is isolated stratum corneum. In words: Keratolytic power, Test 1: counting corneocytes released after incubating patches of isolated stratum corneum with the test compound. The following applies: 1% by weight solution in PBS + 0.1% Triton X100, pH 7.4, 37° C., 24 hours. On the procedure: as §1, §2
A 1% by weight solution of the compound of Example 3 was prepared in a PBS buffer supplemented with 0.1% of Triton X100. The pH of the solution was adjusted to 7.4.
as §3, §4
The results obtained are as follows, expressed as the number of liberated corneocytes per microliter, averaged over three tests. Corneocyte fragments were not counted.

In assay [3] the test system is isolated stratum corneum. In words: Keratolytic power, Test 3: counting corneocytes released from isolated stratum corneum, PEG 8/ethanol vehicle. The following applies: 2% by weight solution in water with 50% PEG 8 and 30% ethanol, 37° C., 24 hours; for number of liberated corneocytes per microliter, Sample 1: Sample 1, average over three tests; for number of liberated corneocytes per microliter, Sample 2: Sample 2, average over three tests; for number of liberated corneocytes per microliter, Average: average of Samples 1-2. On the procedure: as §1, §2
A 2% by weight solution of the compound of Example 3, or 2-hydroxy-4-octanoylbenzoic acid (comparison), was prepared in an aqueous solution containing 50% by weight of polyethylene glycol (PEG 8) and 30% by weight of ethanol.
50 microliters of test solution or of control solution were added to each well. Incubation was carried out at 37° C. with stirring for 24 hours.
10 microliters of solution were then withdrawn and were placed in a Mallassez cell. The liberated corneocytes were counted under the microscope.
The results obtained are as follows, expressed as the number of liberated corneocytes per microliter, averaged over the three tests. Corneocyte fragments were not counted.

In the case of `CC/C=C\C[C@H]1C(O)CC[C@@H]1CC(=O)O` (mixture of isomers) [Example 1, (+/−)(1R,2R)-3-hydroxy-2-[(2Z)-2-pentenyl]cyclopentaneacetic acid], in assay [1], the “number of liberated corneocytes per microliter, Average (3 tests per sample, 3 different samples)” value is on record as 26 ± 7 per microliter.

Consider `CCCCC[C@H]1C(O)CC[C@@H]1CC(=O)O` (mixture of isomers) [Example 3, (+/−)(1R,2R)-3-hydroxy-2-pentylcyclopentaneacetic acid], for which the “number of liberated corneocytes per microliter, Average” value in assay [2] (average of Samples 1-3) is given as 61 ± 33 per microliter; in assay [3], 2.5 ± 2 per microliter. In addition, the “number of liberated corneocytes per microliter, Sample 1” value in assay [2] (stratum corneum Sample 1, average over three tests) was determined as 28 ± 9 per microliter; in assay [3], 2 ± 3 per microliter. For the same molecule, the “number of liberated corneocytes per microliter, Sample 2” value is on record as 56 ± 7 per microliter in assay [2] (stratum corneum Sample 2, average over three tests) and 3 ± 1 per microliter in assay [3]. In addition, in assay [2] (stratum corneum Sample 3, average over three tests), the “number of liberated corneocytes per microliter, Sample 3” value was 101 ± 11 per microliter.

`CC/C=C\C[C@H]1C(=O)CC[C@@H]1CC(=O)O` (racemic) [Jasmonic acid, (+/−)(1R,2R)-3-oxo-2-[(2Z)-2-pentyl]cyclopentaneacetic acid]: in assay [1], the “number of liberated corneocytes per microliter, Average (3 tests per sample, 3 different samples)” value came out at 15 ± 5 per microliter.

Take `CCCCCCCC(=O)c1ccc(C(=O)O)c(O)c1` [2-Hydroxy-4-octanoylbenzoic acid, 2-hydroxy-4-octanoylbenzoic acid, reference compound]: in assay [3], the “number of liberated corneocytes per microliter, Sample 1” value turned out to be 3 ± 3 per microliter; the “number of liberated corneocytes per microliter, Sample 2” value was 4 ± 3 per microliter; the “number of liberated corneocytes per microliter, Average” value amounted to 3.5 ± 3 per microliter.
